# Experimental data published in US20090099195A1 (ASTRAZENECA AB, priority 2007, published 2009).
# Tests used:
# [1] = target: T1, rat P2X2/3 (rat P2X3 co-expressed with rat P2X2) (Rattus norvegicus, UniProt P49653+P49654); experiment: rat P2X2/3 FLIPR calcium (Fluo-4) antagonist assay; details: Rat P2X2/3 FLIPR Mean IC50 (nM), HEK-TREX cells, tetracycline-induced rat P2X3 with constitutive rat P2X2; agonist 500 nM α,β-methylene-ATP
# T1 sequence (P49654 1-397): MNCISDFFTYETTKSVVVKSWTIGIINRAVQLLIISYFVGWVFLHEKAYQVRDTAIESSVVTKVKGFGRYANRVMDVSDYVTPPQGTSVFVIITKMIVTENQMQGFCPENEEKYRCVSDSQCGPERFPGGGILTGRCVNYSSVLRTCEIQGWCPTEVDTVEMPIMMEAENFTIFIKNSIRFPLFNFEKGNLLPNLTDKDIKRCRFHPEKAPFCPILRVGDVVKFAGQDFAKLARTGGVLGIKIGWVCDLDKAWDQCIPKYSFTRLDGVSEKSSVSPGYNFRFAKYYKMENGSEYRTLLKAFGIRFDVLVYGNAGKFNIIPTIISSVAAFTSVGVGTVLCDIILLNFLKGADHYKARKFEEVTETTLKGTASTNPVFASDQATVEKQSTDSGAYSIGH
# T1 sequence (P49653 1-472): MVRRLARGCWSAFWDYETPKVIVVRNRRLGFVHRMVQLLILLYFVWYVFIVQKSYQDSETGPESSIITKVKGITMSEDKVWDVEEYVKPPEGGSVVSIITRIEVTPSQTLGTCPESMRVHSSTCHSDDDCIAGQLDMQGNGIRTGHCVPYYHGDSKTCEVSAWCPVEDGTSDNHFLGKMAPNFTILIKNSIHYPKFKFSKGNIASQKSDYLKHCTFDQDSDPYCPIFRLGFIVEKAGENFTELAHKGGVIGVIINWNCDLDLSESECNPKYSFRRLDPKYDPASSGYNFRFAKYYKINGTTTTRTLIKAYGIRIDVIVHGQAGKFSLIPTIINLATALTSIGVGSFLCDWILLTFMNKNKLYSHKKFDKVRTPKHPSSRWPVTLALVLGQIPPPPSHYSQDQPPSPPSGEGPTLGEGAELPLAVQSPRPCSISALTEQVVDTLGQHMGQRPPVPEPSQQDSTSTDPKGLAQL
# Procedure: The assay used a calcium indicator dye (Fluo-4) that emits fluorescence, the intensity of which is related to the concentration of calcium that entered the cell when P2X3 was activated and the channel opened. Activation of hP2X3 or rat P2X3 and rat P2X2/3 (from the coexpression of rat P2X3 and rat P2×2) is elicited the by P2X3 agonist α,β methylene-ATP (Sigma M6517), and the resulting fluorescence is measured with a FLIPR II™ instrument (Molecular Devices). Compounds are tested for their ability to inhibit the agonist-induced fluorescent signal.
# For the rat P2X2/3 HEK-TREX cells, induction of the rat P2X3 expression is used to generate the rat P2X2/3 channels in HEK-TREX cells and performed by addition of 1 μg/mL tetracycline (Invitrogen) 24 h prior to compounds testing to the HEK-TREX expressing the rat P2X2 constitutively. On the day of the experiment, the cells and test compounds are prepared as follows. […] After preparing the compounds, the medium is removed from the cell plates by inversion. A loading solution of 30 μL assay buffer containing 4 μM of the calcium indicator dye FLUO-4 AM (Molecular Probes F14202) is added to each well using a Multidrop (Labsystems). […] The incubation is terminated by washing the cells four times in assay buffer using a Skatron Embla (Molecular Devices), and 25 μL of assay buffer was left in each well. Cell plates are then transferred to the FLIPR. Experiments are initiated by measuring a baseline fluorescence reading for 10 seconds, followed by the addition of 12.5 μL of cpds and data sampling for a total 280 seconds. The experiments are terminated by addition of 12.5 μL of a reference agonist (500 nM α,β-methylene-ATP) or buffer, producing a final assay volume of 50 μL followed by data sampling for an additional 280 seconds.
# In P2X3 antagonist experiments (human and rat assays) data are analysed as normalised maximal peak fluorescence monitored following agonist addition and calculated as percent of relative fluorescent counts from control agonist. The dose-response antagonist inhibition curves are analyzed in a 4-parameter sigmoidal fit using a non-linear curve-fitting program (XLfit version 5.0.6, ID Business Solutions Limited, Guildford, UK).
# [2] = target: T2, hP2X3 (human Purinergic P2X receptors subtype 3), clone B (Homo sapiens, UniProt P56373); experiment: hP2X3 FLIPR calcium (Fluo-4) antagonist assay, clone B; details: Human P2X3 FLIPR Clone B IC50 (nM), RLE cells expressing hP2X3 clone B (NM_002559); agonist 500 nM α,β-methylene-ATP
# T2 sequence (P56373 1-397): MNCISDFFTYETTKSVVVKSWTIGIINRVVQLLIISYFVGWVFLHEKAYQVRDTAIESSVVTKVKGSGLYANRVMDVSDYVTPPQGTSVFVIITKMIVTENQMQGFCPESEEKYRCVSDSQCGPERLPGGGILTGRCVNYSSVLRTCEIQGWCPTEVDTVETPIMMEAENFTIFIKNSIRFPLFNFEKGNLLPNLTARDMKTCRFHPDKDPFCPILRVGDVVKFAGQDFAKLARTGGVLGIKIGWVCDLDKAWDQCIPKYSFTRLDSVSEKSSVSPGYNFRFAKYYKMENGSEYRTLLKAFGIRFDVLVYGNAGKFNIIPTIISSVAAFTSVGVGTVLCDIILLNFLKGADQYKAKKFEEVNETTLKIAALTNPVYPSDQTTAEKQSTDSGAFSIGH
IC50 [1] [nM],IC50 [2] [nM],Structure (SMILES)
2530,550,"CC(=O)N1CCN(c2nc3c(c(N4CCCC4c4cnc5ccccc5c4)n2)CN(C(C)C)C3=O)CC1 (single isomer, unassigned) [Example 282, 4-(4-acetylpiperazin-1-yl)-8-propan-2-yl-2-(2-quinolin-3-ylpyrrolidin-1-yl)-3,5,8-triazabicyclo[4.3.0]nona-1,3,5-trien-7-one]"
253,87,"CC(=O)N1CCN(c2nc3c(c(N4CCCC4c4cnc5ccccc5c4)n2)CN(C(C)C)C3=O)CC1 (single isomer, unassigned) [Example 283, 4-(4-acetylpiperazin-1-yl)-8-propan-2-yl-2-(2-quinolin-3-ylpyrrolidin-1-yl)-3,5,8-triazabicyclo[4.3.0]nona-1,3,5-trien-7-one]"
1500,53,"COc1ccc(CC2CCCN2c2nc(N3CCN(C(C)=O)CC3)nc3c2CN(C(C)C)C3=O)cc1 (single isomer, unassigned) [Example 287, 2-(4-acetylpiperazin-1-yl)-6-isopropyl-4-[2-[(4-methoxyphenyl)methyl]pyrrolidin-1-yl]-5H-pyrrolo[3,4-d]pyrimidin-7-one]"
234,35,"CC(=O)N1CCN(c2nc(N[C@H](C)c3cnc4ccccc4c3)c3c(n2)C(=O)N(C(C)C)C3)CC1 (single isomer, unassigned) [Example 344]"
1910,66,"CC(=O)N1CCN(c2nc(N[C@@H](C)c3cnc4ccccc4c3)c3c(n2)C(=O)N(C(C)C)C3)CC1 (single isomer, unassigned) [Example 345]"
3970,34,"CCC(C)N1Cc2c(NCc3cnn(-c4ccccc4)c3)nc(N3CCN(C(C)=O)CC3)nc2C1=O (single isomer, unassigned; (+)) [Example 306, (+)-4-(4-acetylpiperazin-1-yl)-8-butan-2-yl-2-[(1-phenylpyrazol-4-yl)methylamino]-3,5,8-triazabicyclo[4.3.0]nona-1,3,5-trien-7-one]"
10300,20,"CCC(C)N1Cc2c(NCc3cnc4ccccc4c3)nc(N3CCN(C(C)=O)CC3)nc2C1=O (single isomer, unassigned; (+)) [Example 308, (+)-2-(4-acetylpiperazin-1-yl)-4-(3-quinolylmethylamino)-6-sec-butyl-5H-pyrrolo[3,4-d]pyrimidin-7-one]"
12000,150,"CCC(C)N1Cc2c(NCc3cnn(-c4ccccc4)c3)nc(N3CCN(C(C)=O)CC3)nc2C1=O (single isomer, unassigned; (-)) [Example 307, (−)-4-(4-acetylpiperazin-1-yl)-8-butan-2-yl-2-[(1-phenylpyrazol-4-yl)methylamino]-3,5,8-triazabicyclo[4.3.0]nona-1,3,5-trien-7-one]"
1680,28,"CCC(C)N1Cc2c(NCc3cc4ccccc4cn3)nc(N3CCN(C(C)=O)CC3)nc2C1=O (single isomer, unassigned; (-)) [Example 311, (−)-2-(4-acetylpiperazin-1-yl)-4-(3-isoquinolylmethylamino)-6-sec-butyl-5H-pyrrolo[3,4-d]pyrimidin-7-one]"
18500,110,"CC(=O)N1CCN(c2nc(NC(C)(C)Cc3ccc(F)cc3)c3c(n2)C(=O)N(C(C)C)C3)CC1 [Example 14, 2-(4-acetylpiperazin-1-yl)-4-{[2-(4-fluorophenyl)-1,1-dimethylethyl]amino}-6-isopropyl-5,6-dihydro-7H-pyrrolo[3,4-d]pyrimidin-7-one]"
2680,130,"CC(=O)N1CCN(c2nc3c(c(N4CCCC4Cc4ccc(C)cc4)n2)CN(C(C)C)C3=O)CC1 (stereo not shown) [Example 47, 2-(4-acetylpiperazin-1-yl)-6-isopropyl-4-[2-(4-methylbenzyl)pyrrolidin-1-yl]-5,6-dihydro-7H-pyrrolo[3,4-d]pyrimidin-7-one]"
2110,–,"CC(=O)N1CCN(c2nc(NC(c3ccccc3)c3ccccc3)c3c(n2)C(=O)N(C(C)C)C3)CC1 [Example 72, 2-(4-Acetyl-piperazin-1-yl)-4-(benzhydryl-amino)-6-isopropyl-5,6-dihydro-pyrrolo[3,4-d]pyrimidin-7-one]"
3300,71,"CC(=O)N1CCN(c2nc(N[C@H](C)c3ccc(OC(F)F)cc3)c3c(n2)C(=O)N(C(C)C)C3)CC1 [Example 114, 2-(4-acetylpiperazin-1-yl)-4-({(1R)-1-[4-(difluoromethoxy)phenyl]ethyl}amino)-6-isopropyl-5,6-dihydro-7H-pyrrolo[3,4-d]pyrimidin-7-one]"
10300,57,"CC(=O)N1CCN(c2nc3c(c(N4CCC[C@@H]4Cc4ccccc4)n2)CN(C(C)C)C3=O)CC1 [Example 116, 2-(4-acetylpiperazin-1-yl)-4-[(2R)-2-benzylpyrrolidin-1-yl]-6-isopropyl-5,6-dihydro-7H-pyrrolo[3,4-d]pyrimidin-7-one]"
4580,150,"CC(C)N1Cc2c(NC3c4cccnc4CCc4c(F)cccc43)nc(N(C)CCN(C)C)nc2C1=O (stereo not shown) [Example 121, 2-[[2-(dimethylamino)ethyl](methyl)amino]-4-[(9-fluoro-10,11-dihydro-5H-benzo[4,5]cyclohepta[1,2-b]pyridin-5-yl)amino]-6-isopropyl-5,6-dihydro-7H-pyrrolo[3,4-d]pyrimidin-7-one]"
6320,130,"CC(=O)N1CCN(c2nc(NCc3ccc(OC(F)(F)F)cc3C)c3c(n2)C(=O)N(C(C)C)C3)CC1 [Example 122, 2-(4-acetylpiperazin-1-yl)-6-isopropyl-4-{[2-methyl-4-(trifluoromethoxy)benzyl]amino}-5,6-dihydro-7H-pyrrolo[3,4-d]pyrimidin-7-one]"
13300,2300,CC(=O)N1CCN(c2nc(NC3(c4ccc(Cl)cc4)CC3)c3c(n2)C(=O)N(C(C)C)C3)CC1 [Example 130]
40000,6000,"COc1cccc(C2CCCN2c2nc(N3CCN(C(C)=O)CC3)nc3c2CN(C(C)C)C3=O)c1 (stereo not shown) [Example 131, 2-(4-Acetylpiperazin-1-yl)-6-isopropyl-4-(2-(3-methoxyphenyl)pyrrolidin-1-yl)-5H-pyrrolo[3,4-d]pyrimidin-7(6H)-one]"
13300,1400,"CC(=O)N1CCN(c2nc3c(c(N4CCCC4c4cccc(Cl)c4)n2)CN(C(C)C)C3=O)CC1 (stereo not shown) [Example 132, 2-(4-Acetylpiperazin-1-yl)-4-(2-(3-chlorophenyl)pyrrolidin-1-yl)-6-isopropyl-5H-pyrrolo[3,4-d]pyrimidin-7(6H)-one]"
49800,490,"CC(C)N1Cc2c(NC(C)(C)Cc3ccc(F)cc3)nc(N3CCN4C(=O)CCC4C3)nc2C1=O (stereo not shown) [Example 134, 4-(1-(4-Fluorophenyl)-2-methylpropan-2-ylamino)-6-isopropyl-2-(6-oxohexahydro[1,2-a]pyrazin-2(1H)-yl)-5H-pyrrolo[3,4-d]pyrimidin-7(6H)-one]"
7840,–,"COc1cc(OC(F)(F)F)ccc1CNc1nc(N2CCN(C(C)=O)CC2)nc2c1CN(C(C)C)C2=O [Example 232, 2-(4-acetylpiperazin-1-yl)-6-isopropyl-4-(2-methoxy-4-(trifluoromethoxy)benzylamino)-5H-pyrrolo[3,4-d]pyrimidin-7(6H)-one]"
